Measurements: patent publication US7365053B2, “Selective N-acylation of A82846 glygopeptides analogs” (priority 2000, dated 2008)
Values after ≈ are worked out from the molar mass of the structure shown.

Tests used:
[1] = tested on: Enterococcus faecalis 2041; assay: Broth micro-dilution MIC; assay type: cell-based; details: BHI medium
Protocol: (§1) The compounds of the present invention have in vitro activity against Gram-positive pathogenic bacteria. The antibacterial activity of the present compounds is illustrated in Tables III and IV. The minimal inhibitory concentrations (MICs) were determined using a standard broth micro-dilution assay. Table IV presents a comparison of the activity of illustrative compounds against representative vancomycin-resistant and vancomycin-sensitive enterococci (Enterococcus faecium and Enterococcus faecalis), mean geometric MIC (mcg/mL), as determined by the standard broth microdilution assay.
(§2) Assays for antimicrobial activity were performed using microbroth susceptibility testing methods as described by the NCCLS (National Committee for Clinical Laboratories Standards. 1990. Approved standard M7-A2. Methods for dilution antimicrobial susceptibility testing for bacteria that grow aerobically, 2 ed., Villanova Pa.). Brain-heart infusion medium (BHI) was used for testing of enterococci, and NCCLS recommendations for medium were followed for other bacteria.

[2] = tested on: Enterococcus faecalis 276; assay: Broth micro-dilution MIC; assay type: cell-based; details: BHI medium
Protocol: as §1, §2

[3] = tested on: Enterococcus faecium 180-1; assay: Broth micro-dilution MIC; assay type: cell-based; details: BHI medium
Protocol: as §1, §2

[4] = tested on: Enterococcus faecium 180; assay: Broth micro-dilution MIC; assay type: cell-based; details: BHI medium
Protocol: as §1, §2

[5] = tested on: Enterococcus gallinarum 245; assay: Broth micro-dilution MIC; assay type: cell-based; details: BHI medium
Protocol: as §1, §2

[6] = tested on: Escherichia coli EC14; assay: Broth micro-dilution MIC; assay type: cell-based
Protocol: as §1, §2

[7] = tested on: Haemophilus influenzae RD; assay: Broth micro-dilution MIC; assay type: cell-based
Protocol: as §1, §2

[8] = tested on: Staphylococcus aureus 446; assay: Broth micro-dilution MIC; assay type: cell-based
Protocol: as §1, §2

[9] = tested on: Staphylococcus aureus 447; assay: Broth micro-dilution MIC; assay type: cell-based
Protocol: as §1, §2

[10] = tested on: Staphylococcus aureus 489; assay: Broth micro-dilution MIC; assay type: cell-based
Protocol: as §1, §2

[11] = tested on: Staphylococcus aureus 491; assay: Broth micro-dilution MIC; assay type: cell-based
Protocol: as §1, §2

[12] = tested on: Staphylococcus aureus S13E; assay: Broth micro-dilution MIC; assay type: cell-based
Protocol: as §1, §2

[13] = tested on: Staphylococcus aureus SA1199A; assay: Broth micro-dilution MIC; assay type: cell-based
Protocol: as §1, §2

[14] = tested on: Staphylococcus aureus SA1199B; assay: Broth micro-dilution MIC; assay type: cell-based
Protocol: as §1, §2

[15] = tested on: Staphylococcus aureus SA1199; assay: Broth micro-dilution MIC; assay type: cell-based
Protocol: as §1, §2

[16] = tested on: Staphylococcus aureus X400; assay: Broth micro-dilution MIC; assay type: cell-based
Protocol: as §1, §2

[17] = tested on: Staphylococcus aureus X778; assay: Broth micro-dilution MIC; assay type: cell-based
Protocol: as §1, §2

[18] = tested on: Staphylococcus epidermidis 270; assay: Broth micro-dilution MIC; assay type: cell-based
Protocol: as §1, §2

[19] = tested on: Staphylococcus haemolyticus 105; assay: Broth micro-dilution MIC; assay type: cell-based
Protocol: as §1, §2

[20] = tested on: Staphylococcus haemolyticus 415; assay: Broth micro-dilution MIC; assay type: cell-based
Protocol: as §1, §2

[21] = tested on: Streptococcus pneumoniae P1; assay: Broth micro-dilution MIC; assay type: cell-based
Protocol: as §1, §2

[22] = tested on: Streptococcus pyogenes C203; assay: Broth micro-dilution MIC; assay type: cell-based
Protocol: as §1, §2

[23] = tested on: vancomycin-resistant enterococci; assay: In vitro activity against enterococci, broth microdilution; assay type: cell-based, Enterococcus faecium and Enterococcus faecalis; details: representative vancomycin-resistant enterococci (E. faecium and E. faecalis); BHI medium
Protocol: as §1, §2

[24] = tested on: vancomycin-sensitive enterococci; assay: as above; assay type: cell-based, Enterococcus faecium and Enterococcus faecalis; details: representative vancomycin-sensitive enterococci (E. faecium and E. faecalis); BHI medium
Protocol: as §1, §2

SMILES | MIC [1] | MIC [2] | MIC [3] | MIC [4] | MIC [5] [µg/mL] | MIC [6] [µg/mL] | MIC [7] [µg/mL] | MIC [8] | MIC [9] [µg/mL] | MIC [10] | MIC [11] | MIC [12] | MIC [13] | MIC [14] | MIC [15] | MIC [16] | MIC [17] [µg/mL] | MIC [18] | MIC [19] | MIC [20] [µg/mL] | other results
CC(C)CC(C(=O)NC1C(=O)NC(CC(N)=O)C(=O)NC2C(=O)NC3C(=O)NC(C(=O)NC(C(=O)O)c4cc(O)cc(O)c4-c4cc3ccc4O)C(OC3CC(C)(N)C(O)C(C)O3)c3ccc(c(Cl)c3)Oc3cc2cc(c3OC2OC(CO)C(O)C(O)C2OC2CC(C)(N)C(O)C(C)O2)Oc2ccc(cc2Cl)C1O)N(C)C(=O)c1ccc(-c2ccccc2)cc1 (stereo not drawn) [Example 3] | ≦.06 μg/ml | 0.125 µg/mL (≈ 0.0705 µM) | ≦.06 μg/ml | 0.25 µg/mL (≈ 0.141 µM) | 2 (≈ 1.13 µM) | >64 | >64 | 0.5 µg/mL (≈ 0.282 µM) | 16 (≈ 9.03 µM) | 0.5 µg/mL (≈ 0.282 µM) | 0.5 µg/mL (≈ 0.282 µM) | 0.25 µg/mL (≈ 0.141 µM) | 1 µg/mL (≈ 0.564 µM) | 2 µg/mL (≈ 1.13 µM) | 1 µg/mL (≈ 0.564 µM) | 0.5 µg/mL (≈ 0.282 µM) | 1 (≈ 0.564 µM) | 2 µg/mL (≈ 1.13 µM) | 4 µg/mL (≈ 2.26 µM) | 2 (≈ 1.13 µM) | MIC [21]: ≦.06 μg/ml; MIC [22]: ≦.06 μg/ml; Mean geometric MIC, Vancomycin Resistant Strains [23]: 4 µg/mL; Mean geometric MIC, Vancomycin Sensitive Strains [24]: 0.19 µg/mL
CNC(CC(C)C)C(=O)NC1C(=O)NC(CC(N)=O)C(=O)NC2C(=O)NC3C(=O)NC(C(=O)NC(C(=O)O)c4cc(O)cc(O)c4-c4cc3ccc4O)C(OC3CC(C)(N)C(O)C(C)O3)c3ccc(c(Cl)c3)Oc3cc2cc(c3OC2OC(CO)C(O)C(O)C2OC2CC(C)(NC(=O)c3ccc(-c4ccc(Cl)cc4)cc3)C(O)C(C)O2)Oc2ccc(cc2Cl)C1O (stereo not drawn) [Example 4] | ≦.06 μg/ml | 0.125 µg/mL (≈ 0.0692 µM) | ≦.06 μg/ml | ≦.06 μg/ml | 4 (≈ 2.21 µM) | >64 | 0.25 (≈ 0.138 µM) | 1 µg/mL (≈ 0.553 µM) | 4 (≈ 2.21 µM) | 0.25 µg/mL (≈ 0.138 µM) | 0.5 µg/mL (≈ 0.277 µM) | 0.5 µg/mL (≈ 0.277 µM) | 0.25 µg/mL (≈ 0.138 µM) | 0.5 µg/mL (≈ 0.277 µM) | 0.5 µg/mL (≈ 0.277 µM) | 0.25 µg/mL (≈ 0.138 µM) | 0.25 (≈ 0.138 µM) | 2 µg/mL (≈ 1.11 µM) | 1 µg/mL (≈ 0.553 µM) | 4 (≈ 2.21 µM) | MIC [21]: 0.125 µg/mL (≈ 0.0692 µM); MIC [22]: 0.125 µg/mL (≈ 0.0692 µM); Mean geometric MIC, Vancomycin Resistant Strains [23]: 3.4 µg/mL; Mean geometric MIC, Vancomycin Sensitive Strains [24]: 0.093 µg/mL
CNC(CC(C)C)C(=O)NC1C(=O)NC(CC(N)=O)C(=O)NC2C(=O)NC3C(=O)NC(C(=O)NC(C(=O)O)c4cc(O)cc(O)c4-c4cc3ccc4O)C(OC3CC(C)(NC(=O)c4ccc(-c5ccc(Cl)cc5)cc4)C(O)C(C)O3)c3ccc(c(Cl)c3)Oc3cc2cc(c3OC2OC(CO)C(O)C(O)C2OC2CC(C)(N)C(O)C(C)O2)Oc2ccc(cc2Cl)C1O (stereo not drawn) [Example 5] | ≦.06 μg/ml | ≦.06 μg/ml | ≦.06 μg/ml | 1 µg/mL (≈ 0.553 µM) | 8 (≈ 4.43 µM) | >64 | >64 | 0.5 µg/mL (≈ 0.277 µM) | 2 (≈ 1.11 µM) | ≦.06 μg/ml | ≦.06 μg/ml | 0.5 µg/mL (≈ 0.277 µM) | ≦.06 μg/ml | 0.25 µg/mL (≈ 0.138 µM) | 0.5 µg/mL (≈ 0.277 µM) | ≦.06 μg/ml | 0.5 (≈ 0.277 µM) | 4 µg/mL (≈ 2.21 µM) | 0.5 µg/mL (≈ 0.277 µM) | 8 (≈ 4.43 µM) | MIC [21]: ≦.06 μg/ml; MIC [22]: ≦.06 μg/ml; Mean geometric MIC, Vancomycin Resistant Strains [23]: 19 µg/mL; Mean geometric MIC, Vancomycin Sensitive Strains [24]: 0.29 µg/mL
CCCCCCCCOc1ccc(C(=O)NC2(C)CC(OC3C(Oc4c5cc6cc4Oc4ccc(cc4Cl)C(OC4CC(C)(N)C(O)C(C)O4)C4NC(=O)C(NC(=O)C6NC(=O)C(CC(N)=O)NC(=O)C(NC(=O)C(CC(C)C)NC)C(O)c6ccc(c(Cl)c6)O5)c5ccc(O)c(c5)-c5c(O)cc(O)cc5C(C(=O)O)NC4=O)OC(CO)C(O)C3O)OC(C)C2O)cc1 (stereo not drawn) [Example 6] | 0.25 µg/mL (≈ 0.137 µM) | 1 µg/mL (≈ 0.548 µM) | 0.125 µg/mL (≈ 0.0685 µM) | 0.25 µg/mL (≈ 0.137 µM) | 8 (≈ 4.38 µM) | >64 | >64 | 2 µg/mL (≈ 1.1 µM) | 8 (≈ 4.38 µM) | 1 µg/mL (≈ 0.548 µM) | 2 µg/mL (≈ 1.1 µM) | 8 µg/mL (≈ 4.38 µM) | 0.25 µg/mL (≈ 0.137 µM) | 2 µg/mL (≈ 1.1 µM) | 4 µg/mL (≈ 2.19 µM) | 4 µg/mL (≈ 2.19 µM) | 2 (≈ 1.1 µM) | 8 µg/mL (≈ 4.38 µM) | 0.5 µg/mL (≈ 0.274 µM) | 8 (≈ 4.38 µM) | MIC [21]: 0.25 µg/mL (≈ 0.137 µM); MIC [22]: 0.125 µg/mL (≈ 0.0685 µM); Mean geometric MIC, Vancomycin Resistant Strains [23]: 11.3 µg/mL; Mean geometric MIC, Vancomycin Sensitive Strains [24]: 1.2 µg/mL
CCCCCCCCOc1ccc(C(=O)NC2(C)CC(OC3c4ccc(c(Cl)c4)Oc4cc5cc(c4OC4OC(CO)C(O)C(O)C4OC4CC(C)(N)C(O)C(C)O4)Oc4ccc(cc4Cl)C(O)C(NC(=O)C(CC(C)C)NC)C(=O)NC(CC(N)=O)C(=O)NC5C(=O)NC4C(=O)NC3C(=O)NC(C(=O)O)c3cc(O)cc(O)c3-c3cc4ccc3O)OC(C)C2O)cc1 (stereo not drawn) [Example 7] | ≦.06 μg/ml | ≦.06 μg/ml | ≦.06 μg/ml | 0.5 µg/mL (≈ 0.274 µM) | 8 (≈ 4.38 µM) | >64 | >64 | ≦.06 μg/ml | 0.125 (≈ 0.0685 µM) | ≦.06 μg/ml | ≦.06 μg/ml | ≦.06 μg/ml | ≦.06 μg/ml | ≦.06 μg/ml | ≦.06 μg/ml | 0.125 µg/mL (≈ 0.0685 µM) | 0.125 (≈ 0.0685 µM) | ≦.06 μg/ml | ≦.06 μg/ml | 8 (≈ 4.38 µM) | MIC [21]: ≦.06 μg/ml; MIC [22]: ≦.06 μg/ml; Mean geometric MIC, Vancomycin Resistant Strains [23]: 6.7 µg/mL; Mean geometric MIC, Vancomycin Sensitive Strains [24]: 0.06 µg/mL
CCCCCCCC(=O)NC1(C)CC(OC2C(Oc3c4cc5cc3Oc3ccc(cc3Cl)C(OC3CC(C)(N)C(O)C(C)O3)C3NC(=O)C(NC(=O)C5NC(=O)C(CC(N)=O)NC(=O)C(NC(=O)C(CC(C)C)NC)C(O)c5ccc(c(Cl)c5)O4)c4ccc(O)c(c4)-c4c(O)cc(O)cc4C(C(=O)O)NC3=O)OC(CO)C(O)C2O)OC(C)C1O (stereo not drawn) [Example 8, 4′-N-octanoyl-A82846B] | 0.25 µg/mL (≈ 0.145 µM) | 0.5 µg/mL (≈ 0.291 µM) | 0.125 µg/mL (≈ 0.0727 µM) | 2 µg/mL (≈ 1.16 µM) | 16 (≈ 9.31 µM) | >64 | 64 (≈ 37.2 µM) | 2 µg/mL (≈ 1.16 µM) | 8 (≈ 4.65 µM) | 0.25 µg/mL (≈ 0.145 µM) | 0.25 µg/mL (≈ 0.145 µM) | 2 µg/mL (≈ 1.16 µM) | 0.25 µg/mL (≈ 0.145 µM) | 2 µg/mL (≈ 1.16 µM) | 2 µg/mL (≈ 1.16 µM) | 0.5 µg/mL (≈ 0.291 µM) | 1 (≈ 0.582 µM) | 8 µg/mL (≈ 4.65 µM) | 0.5 µg/mL (≈ 0.291 µM) | 16 (≈ 9.31 µM) | MIC [21]: ≦.06 μg/ml; MIC [22]: ≦.06 μg/ml; Mean geometric MIC, Vancomycin Resistant Strains [23]: 54 µg/mL; Mean geometric MIC, Vancomycin Sensitive Strains [24]: 0.87 µg/mL
